Source: ChEMBL document CHEMBL4507268 (2021)

Experiments:
[1] = target: Sigma non-opioid intracellular receptor 1 (Homo sapiens, UniProt Q99720); test: GPCRScan assay: inhibition of Sigma 1; design: radioligand conc. used [nm] 4.0 – 5.0, parental cells HEKT
[2] = target: T1, Activin receptor type-1B (Homo sapiens) (UniProt P36896); conditions: Compound concentration 1000.0 nM
T1 sequence (whole entry): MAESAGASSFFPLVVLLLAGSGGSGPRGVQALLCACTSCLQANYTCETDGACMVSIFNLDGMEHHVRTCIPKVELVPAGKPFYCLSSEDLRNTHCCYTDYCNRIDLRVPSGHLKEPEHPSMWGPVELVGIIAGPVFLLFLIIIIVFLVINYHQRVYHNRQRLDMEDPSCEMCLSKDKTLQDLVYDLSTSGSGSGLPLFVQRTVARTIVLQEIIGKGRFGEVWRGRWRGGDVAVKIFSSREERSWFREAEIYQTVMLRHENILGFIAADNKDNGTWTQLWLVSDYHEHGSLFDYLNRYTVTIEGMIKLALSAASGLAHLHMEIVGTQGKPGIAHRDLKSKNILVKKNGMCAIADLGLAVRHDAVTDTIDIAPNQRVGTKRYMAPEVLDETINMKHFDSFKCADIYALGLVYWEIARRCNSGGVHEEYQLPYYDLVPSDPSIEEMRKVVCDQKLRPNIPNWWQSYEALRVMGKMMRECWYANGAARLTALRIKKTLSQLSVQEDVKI

[3] = target: T2, Serine/threonine-protein kinase BRSK1 (Homo sapiens) (UniProt Q8TDC3); conditions: Compound concentration 1000.0 nM
T2 sequence (whole entry): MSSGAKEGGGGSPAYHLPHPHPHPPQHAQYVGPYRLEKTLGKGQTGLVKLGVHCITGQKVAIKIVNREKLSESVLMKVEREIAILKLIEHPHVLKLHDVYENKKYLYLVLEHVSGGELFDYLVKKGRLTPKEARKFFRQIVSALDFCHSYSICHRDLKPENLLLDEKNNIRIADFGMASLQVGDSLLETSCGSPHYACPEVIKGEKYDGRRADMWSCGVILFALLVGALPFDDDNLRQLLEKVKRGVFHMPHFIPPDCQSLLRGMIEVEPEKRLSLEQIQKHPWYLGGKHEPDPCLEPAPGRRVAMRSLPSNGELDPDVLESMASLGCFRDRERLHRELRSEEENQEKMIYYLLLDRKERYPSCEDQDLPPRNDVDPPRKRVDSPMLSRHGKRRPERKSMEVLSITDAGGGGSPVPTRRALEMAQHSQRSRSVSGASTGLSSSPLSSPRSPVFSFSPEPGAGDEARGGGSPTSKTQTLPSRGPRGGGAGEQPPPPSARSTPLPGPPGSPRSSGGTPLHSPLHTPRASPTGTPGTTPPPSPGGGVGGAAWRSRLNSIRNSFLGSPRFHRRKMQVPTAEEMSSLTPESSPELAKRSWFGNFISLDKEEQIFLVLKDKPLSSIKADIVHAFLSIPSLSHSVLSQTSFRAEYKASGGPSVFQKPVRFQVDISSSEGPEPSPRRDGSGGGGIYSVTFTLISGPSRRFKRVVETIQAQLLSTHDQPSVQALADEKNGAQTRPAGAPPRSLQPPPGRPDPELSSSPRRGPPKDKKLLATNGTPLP

[4] = target: Peripheral plasma membrane protein CASK (Homo sapiens) (UniProt O14936); conditions: Compound concentration 1000.0 nM
[5] = target: Cyclin-dependent kinase-like 5 (Homo sapiens) (UniProt O76039); conditions: Compound concentration 1000.0 nM
[6] = target: Citron Rho-interacting kinase (Homo sapiens) (UniProt O14578); conditions: Compound concentration 1000.0 nM
[7] = target: Dual specificity protein kinase CLK3 (Homo sapiens) (UniProt P49761); conditions: Compound concentration 1000.0 nM
[8] = target: Megakaryocyte-associated tyrosine-protein kinase (Homo sapiens) (UniProt P42679); conditions: Compound concentration 1000.0 nM
[9] = test system: Epidermal growth factor receptor (Homo sapiens), P00533 [UNDEFINED MUTATION]; conditions: Compound concentration 1000.0 nM
[10] = target: Mitogen-activated protein kinase 3 (Homo sapiens) (UniProt P27361); conditions: Compound concentration 1000.0 nM
[11] = test system: Fibroblast growth factor receptor 3 (Homo sapiens), P22607 [G697C]; conditions: Compound concentration 1000.0 nM
[12] = test system: Receptor-type tyrosine-protein kinase FLT3 (Homo sapiens), P36888 [D835H]; conditions: Compound concentration 1000.0 nM
[13] = target: Mitogen-activated protein kinase 8 (Homo sapiens) (UniProt P45983); conditions: Compound concentration 1000.0 nM
[14] = test system: Mast/stem cell growth factor receptor Kit (Homo sapiens), P10721 [D816H]; conditions: Compound concentration 1000.0 nM
[15] = test system: Mast/stem cell growth factor receptor Kit (Homo sapiens), P10721 [V559D,V654A]; conditions: Compound concentration 1000.0 nM
[16] = target: Dual specificity mitogen-activated protein kinase kinase 1 (Homo sapiens) (UniProt Q02750); conditions: Compound concentration 1000.0 nM
[17] = target: Calcium-dependent protein kinase 1 (Plasmodium falciparum) (UniProt P62344); conditions: Compound concentration 1000.0 nM
[18] = test system: Phosphatidylinositol 4,5-bisphosphate 3-kinase catalytic subunit alpha isoform (Homo sapiens), P42336 [M1043I]; conditions: Compound concentration 1000.0 nM
[19] = target: Protein kinase C delta type (Homo sapiens) (UniProt Q05655); conditions: Compound concentration 1000.0 nM
[20] = target: BDNF/NT-3 growth factors receptor (Homo sapiens) (UniProt Q16620); conditions: Compound concentration 1000.0 nM
[21] = target: 5-hydroxytryptamine receptor 2B (Homo sapiens) (UniProt P41595); conditions: Compound concentration 10.0 uM

Phosphatidylinositol 4,5-bisphosphate 3-kinase catalytic subunit alpha isoform (Homo sapiens), P42336 [M1043I], sequence (P42336 whole entry M1043I, canonical isoform): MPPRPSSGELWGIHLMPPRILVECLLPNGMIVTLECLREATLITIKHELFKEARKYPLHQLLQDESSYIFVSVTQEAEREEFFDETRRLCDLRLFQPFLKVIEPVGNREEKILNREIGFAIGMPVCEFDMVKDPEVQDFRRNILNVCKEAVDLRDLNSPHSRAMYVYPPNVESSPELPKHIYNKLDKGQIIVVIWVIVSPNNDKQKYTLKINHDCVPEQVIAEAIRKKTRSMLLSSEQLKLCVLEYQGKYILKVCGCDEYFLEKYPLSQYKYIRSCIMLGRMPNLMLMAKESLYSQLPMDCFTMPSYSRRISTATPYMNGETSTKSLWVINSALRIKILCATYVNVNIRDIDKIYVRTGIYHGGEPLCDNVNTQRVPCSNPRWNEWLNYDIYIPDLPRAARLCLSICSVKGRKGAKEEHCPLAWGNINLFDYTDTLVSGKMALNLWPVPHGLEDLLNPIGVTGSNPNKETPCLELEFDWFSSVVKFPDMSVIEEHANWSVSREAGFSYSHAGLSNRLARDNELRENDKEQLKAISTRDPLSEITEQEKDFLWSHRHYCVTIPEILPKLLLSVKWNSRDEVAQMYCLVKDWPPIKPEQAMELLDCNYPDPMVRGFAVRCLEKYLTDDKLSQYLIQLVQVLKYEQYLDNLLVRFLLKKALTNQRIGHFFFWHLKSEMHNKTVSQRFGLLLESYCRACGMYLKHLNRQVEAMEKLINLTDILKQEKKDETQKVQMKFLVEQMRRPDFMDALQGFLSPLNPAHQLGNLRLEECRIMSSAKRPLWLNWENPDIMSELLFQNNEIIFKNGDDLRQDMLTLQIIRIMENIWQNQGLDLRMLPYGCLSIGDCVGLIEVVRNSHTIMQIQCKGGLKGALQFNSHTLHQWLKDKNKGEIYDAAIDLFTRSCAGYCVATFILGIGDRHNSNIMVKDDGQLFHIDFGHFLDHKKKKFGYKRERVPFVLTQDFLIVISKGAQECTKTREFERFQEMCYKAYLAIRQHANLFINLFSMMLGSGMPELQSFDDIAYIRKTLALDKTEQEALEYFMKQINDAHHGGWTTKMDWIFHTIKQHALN
Mast/stem cell growth factor receptor Kit (Homo sapiens), P10721 [D816H], sequence (P10721 whole entry D816H): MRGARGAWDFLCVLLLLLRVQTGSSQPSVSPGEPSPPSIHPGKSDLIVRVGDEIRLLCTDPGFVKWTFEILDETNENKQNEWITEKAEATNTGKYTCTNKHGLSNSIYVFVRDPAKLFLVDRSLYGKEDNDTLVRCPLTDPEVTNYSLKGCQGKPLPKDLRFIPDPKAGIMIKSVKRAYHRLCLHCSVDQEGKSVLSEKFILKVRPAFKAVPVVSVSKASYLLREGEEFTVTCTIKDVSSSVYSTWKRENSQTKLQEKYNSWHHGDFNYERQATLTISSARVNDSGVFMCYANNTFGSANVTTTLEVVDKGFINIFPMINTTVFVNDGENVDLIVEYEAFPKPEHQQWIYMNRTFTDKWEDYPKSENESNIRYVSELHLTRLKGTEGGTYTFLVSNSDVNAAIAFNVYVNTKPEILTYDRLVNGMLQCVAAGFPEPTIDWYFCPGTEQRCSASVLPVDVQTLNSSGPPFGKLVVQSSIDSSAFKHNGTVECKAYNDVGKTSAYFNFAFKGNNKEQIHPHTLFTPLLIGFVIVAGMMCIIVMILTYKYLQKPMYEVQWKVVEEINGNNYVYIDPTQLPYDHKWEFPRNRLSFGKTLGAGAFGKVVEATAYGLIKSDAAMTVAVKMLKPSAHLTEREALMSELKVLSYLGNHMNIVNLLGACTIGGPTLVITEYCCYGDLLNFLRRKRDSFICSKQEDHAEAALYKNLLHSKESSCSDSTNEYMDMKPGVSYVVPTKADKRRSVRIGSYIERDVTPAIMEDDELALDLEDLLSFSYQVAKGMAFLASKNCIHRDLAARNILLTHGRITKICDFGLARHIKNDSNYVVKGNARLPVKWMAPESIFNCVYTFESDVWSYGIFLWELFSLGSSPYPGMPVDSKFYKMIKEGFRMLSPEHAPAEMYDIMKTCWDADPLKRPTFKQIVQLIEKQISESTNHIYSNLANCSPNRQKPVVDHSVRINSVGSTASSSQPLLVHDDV
Mast/stem cell growth factor receptor Kit (Homo sapiens), P10721 [V559D,V654A], sequence (P10721 whole entry V559D/V654A): as the sequence (P10721 whole entry D816H) above, with V559D, V654A, H816D counted along it
Cyclin-dependent kinase-like 5 (Homo sapiens), sequence (O76039 whole entry): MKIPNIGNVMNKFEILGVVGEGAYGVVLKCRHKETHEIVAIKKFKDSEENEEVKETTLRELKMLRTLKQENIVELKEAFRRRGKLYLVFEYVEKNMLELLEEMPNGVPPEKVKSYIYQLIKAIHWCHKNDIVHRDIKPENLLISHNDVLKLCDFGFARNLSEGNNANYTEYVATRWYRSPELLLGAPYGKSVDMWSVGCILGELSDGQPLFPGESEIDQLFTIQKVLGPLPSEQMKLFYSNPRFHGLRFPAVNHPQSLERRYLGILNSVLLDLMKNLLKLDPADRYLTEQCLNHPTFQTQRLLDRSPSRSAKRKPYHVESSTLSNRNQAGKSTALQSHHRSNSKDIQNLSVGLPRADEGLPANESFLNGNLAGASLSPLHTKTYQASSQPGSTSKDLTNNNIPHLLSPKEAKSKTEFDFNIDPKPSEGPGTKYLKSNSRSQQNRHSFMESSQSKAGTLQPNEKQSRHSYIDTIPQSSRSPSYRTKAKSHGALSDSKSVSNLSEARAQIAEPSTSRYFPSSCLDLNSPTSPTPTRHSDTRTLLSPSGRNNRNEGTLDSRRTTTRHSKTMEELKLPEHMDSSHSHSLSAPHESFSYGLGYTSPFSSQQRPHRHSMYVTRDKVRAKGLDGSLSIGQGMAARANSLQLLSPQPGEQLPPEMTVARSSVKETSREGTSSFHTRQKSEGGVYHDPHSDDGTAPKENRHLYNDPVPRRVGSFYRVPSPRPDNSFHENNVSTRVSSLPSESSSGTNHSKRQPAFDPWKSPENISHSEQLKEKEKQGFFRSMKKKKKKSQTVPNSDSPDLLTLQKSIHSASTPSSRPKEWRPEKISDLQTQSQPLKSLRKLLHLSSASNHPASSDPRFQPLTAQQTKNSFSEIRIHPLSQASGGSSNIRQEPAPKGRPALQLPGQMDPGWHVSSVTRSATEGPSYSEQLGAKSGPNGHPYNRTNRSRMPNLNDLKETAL
Dual specificity mitogen-activated protein kinase kinase 1 (Homo sapiens), sequence (Q02750 whole entry): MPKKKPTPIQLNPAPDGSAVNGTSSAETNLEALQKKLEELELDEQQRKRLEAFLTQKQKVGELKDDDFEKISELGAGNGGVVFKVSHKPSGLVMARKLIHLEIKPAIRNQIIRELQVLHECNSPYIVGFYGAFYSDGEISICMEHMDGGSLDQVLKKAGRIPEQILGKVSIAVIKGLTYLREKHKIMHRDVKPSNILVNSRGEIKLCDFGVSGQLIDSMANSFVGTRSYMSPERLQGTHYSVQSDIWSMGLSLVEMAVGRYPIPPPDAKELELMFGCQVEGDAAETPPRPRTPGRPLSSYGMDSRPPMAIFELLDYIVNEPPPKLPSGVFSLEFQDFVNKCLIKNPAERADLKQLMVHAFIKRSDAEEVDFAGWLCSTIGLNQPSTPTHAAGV
Megakaryocyte-associated tyrosine-protein kinase (Homo sapiens), sequence (P42679 whole entry): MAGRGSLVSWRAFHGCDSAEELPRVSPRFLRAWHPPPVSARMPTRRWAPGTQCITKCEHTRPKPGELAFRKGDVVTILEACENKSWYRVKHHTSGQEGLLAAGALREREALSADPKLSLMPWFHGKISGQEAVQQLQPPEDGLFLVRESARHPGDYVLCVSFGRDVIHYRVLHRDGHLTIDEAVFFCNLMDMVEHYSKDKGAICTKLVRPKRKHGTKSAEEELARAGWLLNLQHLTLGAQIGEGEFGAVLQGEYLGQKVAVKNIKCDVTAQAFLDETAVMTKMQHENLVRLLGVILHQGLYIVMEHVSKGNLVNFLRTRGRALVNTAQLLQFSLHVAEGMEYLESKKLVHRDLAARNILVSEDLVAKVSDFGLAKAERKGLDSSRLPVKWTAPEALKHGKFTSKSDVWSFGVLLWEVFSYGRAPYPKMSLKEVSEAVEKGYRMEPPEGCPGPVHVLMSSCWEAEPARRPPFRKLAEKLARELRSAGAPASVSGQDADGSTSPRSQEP

SMILES | Ki [1] [nM] | residual activity [2] [%] | residual activity [3] [%] | residual activity [4] [%] | residual activity [5] [%] | residual activity [6] [%] | residual activity [7] [%] | residual activity [8] [%] | residual activity [9] [%] | residual activity [10] [%] | residual activity [11] [%] | residual activity [12] [%] | residual activity [13] [%] | residual activity [14] [%] | residual activity [15] [%] | residual activity [16] [%] | residual activity [17] [%] | residual activity [18] [%] | residual activity [19] [%] | residual activity [20] [%] | also measured
Cc1nc(C2CCN(C(=O)c3ccc(OC(F)(F)F)cc3N)CC2)c2ncc(N3CCN(C)CC3)cc2n1 [BAY-693] | 2370 | 86 | 100 | 87 | 89 | 100 | 94 | 100 | 49 | 98 | 100 | 69 | 98 | 100 | 100 | 85 | 100 | 96 | 100 | 100 | inhibition [21]: -1.28%
CN1CCN(c2cnc3c(C4CCN(C(=O)c5ccc(OC(F)(F)F)cc5N)CC4)ncnc3c2)CC1 [BAY-885] | 2500 | 79 | 100 | 89 | 93 | 100 | 100 | 100 | 38 | 100 | 100 | 75 | 97 | 100 | 84 | 95 | 100 | 100 | 100 | 100 | inhibition [21]: 3.56%
